The values that follow are results of earlier work, collected in patent US8633150B2, “Methods for inducing sustained immune response” (TNI Biotech, Inc., priority 2001, dated 2014).

The conditions of data set [1]: Bihari.
The conditions of data set [2]: normal volunteers, HIV positive, and cancer patients; Plotnikoff, et al., 1997.

Read-outs that look alike come from different tables or passages of the source.

On to `CSCC[C@H](NC(=O)[C@H](Cc1ccccc1)NC(=O)CNC(=O)CNC(=O)[C@@H](N)Cc1ccc(O)cc1)C(=O)O` [met-enkephalin, methionine enkephalin], for which the half-life in plasma entry in data set [1] (et al., 1991) is given as “approximately 2 minutes”; in data set [1] (et al., 1991, listed as Met-enkelphalin), “approximately two”. For the same compound, the “toxicity in clinical studies” value in data set [2] was “no major toxicity”.
